Measurements as given in patent US20130079345A1, “[…] ACTIVE DISUBSTITUTED TRIAZINE DERIVATIVES” (BAYER INTELLECTUAL PROPERTY GMBH, priority 2010, published 2013).
Where a name gives a salt, the structure may show the parent alone.

Tests used:
[1] = tested on: LPS-induced TNF alpha release in PBMCs; experiment: TNF alpha release assay; assay type: cell-based; settings: Homo sapiens, PBMC, 6 h, 1 μg/mL LPS
Method: Freshly isolated peripheral blood mononuclear cells (PBMCs) were seeded in 96-well cell culture plates with 200,000 cells in 100 μl cell culture medium (DMEM cell culture medium+glutamine from PAN Biotech GmbH, Aidenbach, Germany) supplemented with 10% fetal calf serum (PAA Laboratories GmbH, Pasching, Austria) per well and incubated overnight at 37° C., 5% CO2. To each well, 100 μL cell culture medium with 2× concentrated test compounds diluted from 10 mM DMSO stocks, or 100 μL DMEM with 0.4% DMSO for control wells, was added. The compounds of general formula (I) summarized in Table 6 were used in this assay. After incubation for 1 h at 37° C., 5% CO2, cells were stimulated with 1 μg/mL LPS (Lipopolysaccharides, Sigma, catalog #L4391-1MG; 1 mg/ml stock solution), or left untreated for negative controls, and plates were incubated for 6 h at 37° C./5% CO2. The cell culture plates were centrifuged at 2000 rpm for 5 minutes, and supernatants were transferred to fresh 96-well polypropylene plates. 25 µL of supernatants were transferred into 96-well-plates of the human TNF alpha-tissue culture kit (Meso Scale Discovery, Gaithersburg, Md., USA), and manufacturer's instructions were followed for analysis of TNF alpha levels. Chemoluminescence was measured in the Mesoscale Sector Imager, and EC50 values were calculated with the software Excel Fit (IDBS, Guildford, UK) from 2-fold dilution series comprising at least 6 concentrations in duplicates.

CDK1/CyclinB1 = molecular target: T1, CDK1/CyclinB1 (Homo sapiens, UniProt P06493); experiment: Lance Ultra KinaSelect Assay, CDK1; assay type: biochemical; settings: ATP 20 μM, read-out: Inhibition (IC50) CDK1
T1 construct: purchased Carna
T1 sequence (P06493 whole entry): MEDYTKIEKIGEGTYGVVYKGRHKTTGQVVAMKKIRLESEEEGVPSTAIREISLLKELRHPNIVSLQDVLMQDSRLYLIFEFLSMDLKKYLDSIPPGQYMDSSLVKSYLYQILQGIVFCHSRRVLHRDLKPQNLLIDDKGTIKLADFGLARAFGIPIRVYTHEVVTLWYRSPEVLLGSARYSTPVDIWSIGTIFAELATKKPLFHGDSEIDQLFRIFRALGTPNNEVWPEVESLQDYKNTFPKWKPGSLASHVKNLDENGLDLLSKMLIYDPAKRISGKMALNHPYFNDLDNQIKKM
T1 sequence (P14635 whole entry partner): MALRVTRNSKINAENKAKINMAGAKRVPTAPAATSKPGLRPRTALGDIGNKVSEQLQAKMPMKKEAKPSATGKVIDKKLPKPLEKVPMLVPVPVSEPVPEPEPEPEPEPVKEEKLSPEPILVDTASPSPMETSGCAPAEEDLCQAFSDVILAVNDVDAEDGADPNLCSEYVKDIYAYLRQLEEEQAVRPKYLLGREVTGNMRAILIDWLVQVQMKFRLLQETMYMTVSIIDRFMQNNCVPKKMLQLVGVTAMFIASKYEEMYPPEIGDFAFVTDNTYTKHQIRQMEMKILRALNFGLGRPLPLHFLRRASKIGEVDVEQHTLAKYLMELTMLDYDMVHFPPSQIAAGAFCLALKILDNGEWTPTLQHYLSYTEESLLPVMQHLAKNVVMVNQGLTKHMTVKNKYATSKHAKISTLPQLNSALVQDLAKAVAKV
Method: (§1) This protocol describes how the Lance Ultra KinaSelect Assay was performed to determine half maximal inhibitory concentration (IC50) of compounds of general formula (I) and CDK/Cyclin complexes. The principle behind this enzymatic assay is based upon the phosphorylation of the ULight-Peptide Substrat. It is detected by using a specific EU-labeled anti-phospho peptide antibody. The binding of the Eu-labeled anti-phospho peptide antibody to the phosphorylated U Light labeled peptide gives rise to a FRET-signal. Binding of an inhibitor to the kinase prevents phosphorylation of the ULight-MBP Substrat, resulting in a loss of FRET.
(§2) The compounds of general formula (I) summarized in Table 5 were diluted from a 10 mM DMSO stock solution 1:10 in a total volume of 15 μL DMSO. This compound predilution was then serial diluted 1:3 over 8 steps in DMSO and briefly spun down. Each compound solution was now diluted 1:20 in Enzymatic Buffer (HEPES: 50 mM, pH: 7.5; MgCl2: 10 mM; EGTA: 1 mM; DTT: 2 mM; Tween-20: 0.01%), mixed thoroughly and spun down. For every sample, 2 μL of the diluted compound were mixed with 6 μL CDK/Cyclin/Substrat solution and […] in a well of a small volume 384 well plate (Corning Incorporated, Corning, N.Y., USA; order no. 3673). […] For positive controls, in each well 2 μL of DMSO solution (1% final DMSO assay concentration) was mixed with 6 μL CDK/Cyclin/Substrat (appropriate final concentration see Table 3) and 2 μL Tracer ATP solution (appropriate final concentration see Table 3). Positive and negative controls were calculated from at least 8 different sample wells. The 384 well plates were mixed in a Teleshaker plate mixer (Beckman Coulter, Brea, Calif., USA) at 2000 rpm for 40 sec, and incubated for 1 h at room temperature. Before reading, 10 μL detection buffer (Lance Detection Buffer 1×; EDTA: […]; Eu-Anti-P-MBP: see Table 3) was added. The FRET signal was measured at 340 nm excitation, 665 nm and 615 nm emission (for the kinase tracer and LanthaScreen Eu-AB, respectively) with an Envision spectrophotometer (Perkin Elmer, Waltham, Mass., USA) with 50 μs delay and 300 μs integration time. IC50 values were determined from the sigmoidal dose response curves with the software Quattro Workflow (Quattro GmbH, Munich, Germany).

CDK4/CyclinD1 = molecular target: T2, CDK4/CyclinD1 (Homo sapiens, UniProt P11802); experiment: Lance Ultra KinaSelect Assay, CDK4; assay type: biochemical; settings: ATP 90 μM, read-out: Inhibition (IC50) CDK4
T2 construct: purchased Invitrogen
T2 sequence (P11802 whole entry): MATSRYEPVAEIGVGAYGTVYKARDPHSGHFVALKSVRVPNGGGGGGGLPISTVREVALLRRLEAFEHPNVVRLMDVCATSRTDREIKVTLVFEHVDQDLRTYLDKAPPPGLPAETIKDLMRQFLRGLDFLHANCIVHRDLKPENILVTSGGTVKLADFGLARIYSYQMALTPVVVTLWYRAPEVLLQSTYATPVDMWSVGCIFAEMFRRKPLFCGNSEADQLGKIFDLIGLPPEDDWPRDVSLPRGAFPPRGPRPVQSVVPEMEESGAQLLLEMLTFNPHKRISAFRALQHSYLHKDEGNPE
T2 sequence (P24385 whole entry partner): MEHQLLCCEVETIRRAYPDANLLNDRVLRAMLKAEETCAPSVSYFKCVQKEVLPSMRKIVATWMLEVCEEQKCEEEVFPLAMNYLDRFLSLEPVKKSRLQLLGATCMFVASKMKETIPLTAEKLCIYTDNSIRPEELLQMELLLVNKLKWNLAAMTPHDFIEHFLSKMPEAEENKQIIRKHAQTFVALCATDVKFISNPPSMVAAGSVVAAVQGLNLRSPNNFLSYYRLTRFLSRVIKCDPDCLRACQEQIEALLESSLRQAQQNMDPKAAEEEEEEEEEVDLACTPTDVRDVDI
Method: as §1, §2

CDK6/CyclinD3 = molecular target: T3, CDK6/CyclinD3 (Homo sapiens, UniProt Q00534); experiment: Lance Ultra KinaSelect Assay, CDK6; assay type: biochemical; settings: read-out: Inhibition (IC50) CDK6
T3 construct: purchased Carna
T3 sequence (Q00534 whole entry): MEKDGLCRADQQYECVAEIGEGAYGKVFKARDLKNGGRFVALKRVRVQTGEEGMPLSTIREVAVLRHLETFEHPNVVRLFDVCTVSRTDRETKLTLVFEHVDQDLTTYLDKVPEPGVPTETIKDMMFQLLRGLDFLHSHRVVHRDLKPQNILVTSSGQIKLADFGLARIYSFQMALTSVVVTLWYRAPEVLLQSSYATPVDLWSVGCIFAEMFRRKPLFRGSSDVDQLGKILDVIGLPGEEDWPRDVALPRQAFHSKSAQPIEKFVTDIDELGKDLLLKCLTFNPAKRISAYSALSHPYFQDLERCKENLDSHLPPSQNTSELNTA
T3 sequence (P30281 whole entry partner): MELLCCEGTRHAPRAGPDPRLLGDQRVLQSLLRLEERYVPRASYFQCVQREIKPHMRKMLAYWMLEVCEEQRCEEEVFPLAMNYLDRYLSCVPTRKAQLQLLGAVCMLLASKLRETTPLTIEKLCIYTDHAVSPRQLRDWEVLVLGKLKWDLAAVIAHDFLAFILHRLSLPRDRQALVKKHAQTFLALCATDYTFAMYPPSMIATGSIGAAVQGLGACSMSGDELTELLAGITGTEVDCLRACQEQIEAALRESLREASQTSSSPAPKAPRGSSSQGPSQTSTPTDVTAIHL
Method: as §1, §2

CDK2/CyclinA = molecular target: T4, CDK2/CyclinA (Homo sapiens, UniProt P24941); experiment: LanthaScreen Eu Kinase Binding Assay, CDK2; settings: tracer 236, read-out: Affinity (Kd) CDK2
T4 construct: purchased Proqinase
Summary of the method: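 TR-FRET competition binding with Alexa Fluor 647 tracer and Eu-anti-GST antibody; e.g. CDK2/Cyclin A 15 nM with tracer 236 60 nM (working solutions). Kinase buffer: HEPES 20 mM pH 8.0, MgCl2 10 mM, DTT 1 mM, Brij-35 0.01%; 8-point 1:3 series, 1 h at room temperature; Kd from sigmoidal dose-response curves.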

`COc1ccccc1-c1ncnc(Nc2cccc(CS(N)(=O)=O)c2)n1` [B1′, 3-[(4-(2-Methoxyphenyl)-1,3,5-triazin-2-yl)amino]benzenemethanesulfonamide trifluoroacetic acid salt] was tested, and the IC50 [1] was 2.71 µM, the IC50 (CDK1/CyclinB1) was 12 µM and the IC50 (CDK4/CyclinD1) was over 10 µM. For the same molecule, the IC50 (CDK6/CyclinD3) was over 10 µM and the Kd (CDK2/CyclinA) was 0.798 µM.
`COc1cc(F)ccc1-c1ncnc(Nc2cccc(CS(N)(=O)=O)c2)n1` [B2′, 1-(3-{[4-(4-fluoro-2-methoxyphenyl)-1,3,5-triazin-2-yl]amino}phenyl)methanesulfonamide hydrochloride] was tested, and the Kd (CDK2/CyclinA) was 0.207 µM.
`COc1cc(F)ccc1-c1ncnc(Nc2cccc(CS(N)(=O)=O)c2)n1` [B2″, 1-(3-{[4-(4-fluoro-2-methoxyphenyl)-1,3,5-triazin-2-yl]amino}phenyl)methanesulfonamide trifluoroacetic acid salt] was tested, and the IC50 (CDK1/CyclinB1) was 0.899 µM, the IC50 (CDK4/CyclinD1) was 3.21 µM and the IC50 (CDK6/CyclinD3) was over 10 µM.
In the case of `NS(=O)(=O)Cc1cccc(Nc2ncnc(-c3ccccc3OCc3ccccc3)n2)c1` [B13′, 3-[(4-(2-Benzyloxyphenyl)-1,3,5-triazin-2-yl)amino]benzenemethanesulfonamide trifluoroacetic acid salt], the IC50 [1] is reported as 0.12 µM, the IC50 (CDK1/CyclinB1) is reported as 3.4 µM and the IC50 (CDK4/CyclinD1) is reported as 0.681 µM. For the same molecule, the IC50 (CDK6/CyclinD3) was over 10 µM and the Kd (CDK2/CyclinA) was 0.088 µM.
`COc1ccccc1-c1ncnc(Nc2cccc(S(N)(=O)=O)c2)n1` [C1′, 3-[(4-(2-Methoxyphenyl)-1,3,5-triazin-2-yl)amino]benzenesulfonamide trifluoroacetic acid salt] showed an IC50 [1] of 0.5 µM, an IC50 (CDK1/CyclinB1) of 1.35 µM and an IC50 (CDK4/CyclinD1) of 1.51 µM. It also gave an IC50 (CDK6/CyclinD3) of over 10 µM and a Kd (CDK2/CyclinA) of 0.22 µM.
In the case of `COc1cc(F)ccc1-c1ncnc(Nc2cccc(CS(N)(=O)=O)c2)n1` [Compound B2, 3-[(4-(4-Fluoro-2-methoxyphenyl)-1,3,5-triazin-2-yl)amino]benzenemethanesulfonamide], the IC50 [1] is reported as 1.03 µM.
In the case of `COc1ccc(F)cc1-c1ncnc(Nc2cccc(CS(N)(=O)=O)c2)n1` [Compound B3, 3-[(4-(5-Fluoro-2-methoxyphenyl)-1,3,5-triazin-2-yl)amino]benzenemethanesulfonamide], the IC50 [1] is reported as 3.24 µM and the Kd (CDK2/CyclinA) is reported as 0.375 µM.
`COc1cccc(F)c1-c1ncnc(Nc2cccc(CS(N)(=O)=O)c2)n1` [Compound B4, 3-[(4-(6-Fluoro-2-methoxyphenyl)-1,3,5-triazin-2-yl)amino]benzenemethanesulfonamide] was tested, and the IC50 [1] was 6.53 µM, the IC50 (CDK1/CyclinB1) was 5.68 µM and the IC50 (CDK4/CyclinD1) was over 10 µM. The IC50 (CDK6/CyclinD3) was over 10 µM and the Kd (CDK2/CyclinA) was 0.704 µM.
For `COc1cc(Cl)ccc1-c1ncnc(Nc2cccc(CS(N)(=O)=O)c2)n1` [Compound B6, 3-[(4-(4-Chloro-2-methoxyphenyl)-1,3,5-triazin-2-yl)amino]benzenemethanesulfonamide], the IC50 (CDK1/CyclinB1) was over 10 µM, the IC50 (CDK4/CyclinD1) was over 10 µM and the IC50 (CDK6/CyclinD3) was over 10 µM.
With `CCOc1ccccc1-c1ncnc(Nc2cccc(CS(N)(=O)=O)c2)n1` [Compound B12, 3-[(4-(2-Ethoxyphenyl)-1,3,5-triazin-2-yl)amino]benzenemethanesulfonamide] the IC50 (CDK1/CyclinB1) was 11.5 µM, the IC50 (CDK4/CyclinD1) was over 10 µM and the IC50 (CDK6/CyclinD3) was over 10 µM. For the same molecule, the Kd (CDK2/CyclinA) was 2.35 µM.
With `NS(=O)(=O)Cc1cccc(Nc2ncnc(-c3ccccc3OCc3ccccc3)n2)c1` [Compound B13, 3-[(4-(2-Benzyloxyphenyl)-1,3,5-triazin-2-yl)amino]benzenemethanesulfonamide] the Kd (CDK2/CyclinA) was 0.687 µM.
With `NS(=O)(=O)Cc1cccc(Nc2ncnc(-c3ccccc3Oc3ccccc3)n2)c1` [Compound B14, 1-(3-{[4-(2-phenoxyphenyl)-1,3,5-triazin-2-yl]amino}phenyl)methanesulfonamide] the Kd (CDK2/CyclinA) was 3.45 µM.
`NS(=O)(=O)Cc1cccc(Nc2ncnc(-c3ccccc3OCc3ccncc3)n2)c1` [Compound B16, 3-[(4-(2-((4-Pyridinyl)methoxy)phenyl)-1,3,5-triazin-2-yl)amino]benzenemethanesulfonamide] gave an IC50 (CDK1/CyclinB1) of 6.77 µM, an IC50 (CDK4/CyclinD1) of over 10 µM and an IC50 (CDK6/CyclinD3) of over 10 µM. It also gave a Kd (CDK2/CyclinA) of 1.69 µM.
`COc1cnccc1-c1ncnc(Nc2cccc(CS(N)(=O)=O)c2)n1` [Compound B19, 3-[(4-(3-Methoxypyridin-4-yl)-1,3,5-triazin-2-yl)amino]benzenemethanesulfonamide] was tested, and the IC50 [1] was 10.6 µM.
In the case of `COc1ccccc1-c1ncnc(Nc2cccc(CCS(N)(=O)=O)c2)n1` [Compound D1, 2-[3-((4-(2-Methoxyphenyl)-1,3,5-triazin-2-yl)amino)phenyl]ethanesulfonamide], the IC50 [1] is reported as 5.37 µM, the IC50 (CDK1/CyclinB1) is reported as 2.58 µM and the IC50 (CDK4/CyclinD1) is reported as 9.32 µM. The IC50 (CDK6/CyclinD3) was over 10 µM and the Kd (CDK2/CyclinA) was 0.31 µM.
`COc1cc(F)ccc1-c1ncnc(Nc2cccc(CCS(N)(=O)=O)c2)n1` [Compound D2, 2-[3-((4-(4-Fluoro-2-methoxyphenyl)-1,3,5-triazin-2-yl)amino)phenyl]ethanesulfonamide] was tested, and the IC50 (CDK1/CyclinB1) was over 10 µM, the IC50 (CDK4/CyclinD1) was over 10 µM and the IC50 (CDK6/CyclinD3) was over 10 µM. The Kd (CDK2/CyclinA) was under 0.005 µM.
`COc1ccccc1-c1ncnc(Nc2cccc([N+](=O)[O-])c2)n1` [Compound H1, 4-(2-Methoxyphenyl)-N-(3-nitrophenyl)-1,3,5-triazine-2-amine] was tested, and the IC50 [1] was 2.92 µM and the Kd (CDK2/CyclinA) was 0.068 µM.
`COc1ccccc1-c1ncnc(Nc2cccc(NS(C)(=O)=O)c2)n1` [Compound K1, N-[3-((4-(2-Methoxyphenyl)-1,3,5-triazin-2-yl)amino)phenyl]-methanesulfonamide] was tested, and the IC50 [1] was 4.42 µM, the IC50 (CDK1/CyclinB1) was over 10 µM and the IC50 (CDK4/CyclinD1) was over 10 µM. It also gave an IC50 (CDK6/CyclinD3) of over 10 µM and a Kd (CDK2/CyclinA) of 0.283 µM.
With `CCCS(=O)(=O)Nc1cccc(Nc2ncnc(-c3ccccc3OC)n2)c1` [Compound L1, N-[3-((4-(2-Methoxyphenyl)-1,3,5-triazin-2-yl)amino)phenyl]-propanesulfonamide] the IC50 [1] was 2.41 µM, the IC50 (CDK1/CyclinB1) was over 10 µM and the IC50 (CDK4/CyclinD1) was over 10 µM. It also gave an IC50 (CDK6/CyclinD3) of over 10 µM.
In the case of `COc1ccccc1-c1ncnc(Nc2ccccc2)n1` [Compound P1, 4-(2-Methoxyphenyl)-N-phenyl-1,3,5-triazine-2-amine], the IC50 [1] is reported as 13.9 µM and the Kd (CDK2/CyclinA) is reported as 0.709 µM.
